Data published in patent publication US20220275329A1, “COMPOSITIONS AND METHODS FOR MATURING STEM CELL-DERIVED BETA CELLS” (President and Fellows of Harvard College, priority 2019, published 2022).
“Also recorded” adds a separate entry of the source.

Assays:
mTORC1 [1] = test: p-S6 FACS staining of beta cells in isolated human islets (mTORC1 activation); assay type: cell-based; settings: for effect on mTORC1 activity (p-S6) in mature beta cells: human islets, 30 minute incubation in RPMI
Text: Insulin-expressing beta cells appear around embryonic day 13.5 (E13.5) in mice and week 8 and 9 post-conception in humans (Pan and Wright, 2011; Slack, 1995), but glucose-stimulated insulin secretion (GSIS) has been observed only days after birth (Blum et al., 2012). Since a major change from embryonic to postnatal physiology is nutrient consumption, it was predicted that nutrients and nutrient sensing by mTORC1 could have a role in the transition from immature to mature insulin secretion by beta cells. To explore that, the nutrient sensitivity and dynamics of mTORC1 in isolated mature human and mouse islets was first examined.
(§1) Differentiated cell clusters or islets were dispersed into single-cell suspension by incubation in TrypLE Express (Invitrogen) at 37° C. until clusters dissociated to single cells upon mixing by pipetting gently up and down (typically 10-15 min). Cells were spun down for 3 min at 1000 rpm, washed once in PBS (1 mL) and transferred to a 1.7 ml microcentrifuge tube (Bioscience; 11510). Cells were resuspended in perm/fix solution and incubated for 10 min (BD 554714). Cells were then washed once in perm/wash for 15 min (BD 554714).
Cells were then resuspended in perm/wash with primary antibodies and incubated at 4° C. overnight. Primary antibodies, diluted 1:300 unless otherwise noted: Mouse anti-Nkx6.1, rat anti-insulin (pro-)IC-peptide, mouse anti-glucagon, rabbit anti-phospho-S6 Ribosomal Protein (Ser240/244). Cells were washed twice in blocking buffer and then incubated in perm/wash buffer with secondary antibodies for 2 hr (protected from light). Secondary antibodies conjugated to Alexa Fluor 405, 488 or 647 (Life Technologies) were used to visualize primary antibodies. Cells were then washed 3 times in perm/wash solution and finally resuspended in 500-700 μl, filtered through a 40 μm nylon mash into flow cytometry tubes (BD Falcon; 352235), and analyzed using the LSR-II flow cytometer (BD Biosciences) with at least 30,000 events recorded. Analysis of the results was performed using FlowJo software. […]

mTORC1 [2] = test: p-S6 staining of SC-beta cells (mTORC1 activity); assay type: cell-based, human
Description: (§2) The hPSC line HUES8 (NIH human embryonic stem cell registry #0021) was used for all experiments. Undifferentiated HUES8 cells were maintained in supplemented mTeSR1 medium (StemCell Technologies) in 500 ml spinner flasks (Coming) set at a 70 rpm rotation rate in a 37° C. 5% CO2 incubator. Directed differentiation into SC-β cells was conducted as described previously with minor modifications. Briefly, 150 million cells were seeded in 300 ml mTeSR1 +10 μM ROCK Inhibitor Y27632, fed with mTeSR1 48 h later, and 72 h later stepwise differentiation stages were induced by the following treatments: DE stage: 24 h in S1 medium +100 ng/ml ActivinA +[…] CHIR99021, followed by 48 h in the same medium without CHIR99021. PGT stage: 72 h in S2 medium +50 ng/ml KGF. PP1 stage: 24 h in S3 medium +50 ng/ml KGF +0.25 μM Sant1 +2 μM Retinoic acid (RA) +500 nM PDBU +10 μM Y27632 +200 nM LDN193189, followed by 24 h in the same medium without LDN193189. […]
Cells were then resuspended in perm/wash with primary antibodies and incubated at 4° C. overnight. […] Cells were then washed 3 times in perm/wash solution and finally resuspended in 500-700 μl, filtered through a 40 μm nylon mash into flow cytometry tubes (BD Falcon; 352235), and analyzed using the LSR-II flow cytometer (BD Biosciences) with at least 30,000 events recorded. […]

SC-beta cells = test: Glucose stimulated insulin secretion (GSIS) assay of SC-beta cells; assay type: cell-based, human
Description: as §2, with “LDN193189. PP2 stage: 6 days in S3 medium +50 ng/ml KGF +0.25 uM Sant1 +0.1 μM Retinoic acid (RA) +10 μM Y27632 +5 ng/ml ActivinA.” for “LDN193189.”
Islets were isolated from whole pancreata using Collagenase P (Roche) injected to the pancreatic duct followed by Histopaque gradient (Sigma). […] Insulin levels were measured by ELISA (Alpco). […] Normalization was done to β-cell number in each sample (pooled from 4 or more mice) scored by FACS following staining for insulin.

mTORC1 [3] = test: p-S6 FACS staining of beta cells in isolated mouse islets (mTORC1 activation); assay type: cell-based
Description: as §1
Cells were then resuspended in perm/wash with primary antibodies and incubated at 4° C. overnight. Primary antibodies, diluted 1:300 unless otherwise noted: Mouse anti-Nkx6.1, rat anti-insulin (pro-)IC-peptide, mouse anti-glucagon, rabbit anti-phospho-S6 Ribosomal Protein (Ser240/244). […] Cells were then washed 3 times in perm/wash solution and finally resuspended in 500-700 μl, filtered through a 40 μm nylon mash into flow cytometry tubes (BD Falcon; 352235), and analyzed using the LSR-II flow cytometer (BD Biosciences) with at least 30,000 events recorded. […]
For flow cytometry, mouse islets were dissociated into a single-cell suspension with trypsin/EDTA treatment for 5 minutes at 37° C., followed by treatment with a cell fixation and permeabilization solution (BD Pharmingen). Stained cells were analyzed on a MACSQuant Analyzer (DAKO). […]

mTORC1 [4] = test: p-S6 immunostaining of pancreatic islets of fasted mice injected with nutrients; assay type: in vivo, mouse; settings: overnight fasted mice, injection
Description: To assess this, mTORC1 activation was analyzed in the islets of fasted mice upon injection with glucose and/or leucine. […] Alpha cells activate the pathway in the presence of amino acids (likely supplied from autophagy) and the absence of glucose (e.g., during fasting), whereas beta cells activate mTORC1 merely following glucose consumption and insulin secretion during feeding (FIG. 1H).
To test the nutrient sensitivity of mTORC1 in beta cells in vivo, glucose was injected into neonates and their pancreata was dissected.
Tissue processing for tissue section staining was performed as previously described {Nir, 2007 #3232}, using the following antibodies: insulin (DakoCytomation), Ki67 (NeoMarkers RM9106S0), Pdx1 (gift from Christopher Wright, Vanderbilt University), Nkx6.1 (β-cell Biology Consortium), Chga (Novus NB120-15160) human p16 (Abcam ab108349 and BD Pharmingen 551153), p21 (Santa Cruz Biotechnology sc-397), Lamp2a (Abcam ab18528), pS6 (Cell Signaling 5364), E-cadherin (BD Pharmingen 610182), Atp5a (Abcam ab14748), Cox17 (Novus NBP1-19696) and Ndufb (Sigma-Aldrich HPA005640). Secondary antibodies were from Jackson ImmunoResearch Laboratories. […] To calculate cell size on tissue sections, the circumference of E-Cadherin-stained cells was determined using Image J Software. >100 cells from 6 mice were scored for each group. […]

mTORC1 [5] = test: p-S6 immunostaining of kidney capsule transplants of SC-beta cells in mice injected with nutrients; assay type: in vivo; settings: two months after transplantation, fasted recipient mouse, injection
Description: Having insight into the nutrient sensitivity of mTORC1 in immature and mature beta cells, the next question was whether changing the environment of the SC-beta cells would change mTORC1 sensitivity to nutrients and its dynamics (FIG. 3A). SC-beta cells were collected from the final stage of the differentiation protocol and transplanted into mice for a period of two months, until reaching a stable functional state. […] All animal experiments were performed in accordance with Harvard University […] Animal Care and Use Committee regulations. Cell transplantations into immunodeficient SCID-Beige mice (Jackson Laboratory) were conducted as described previously with minor modifications. SC-beta cell clusters were resuspended in RPMI-1640 medium (Life Technologies; 11875-093), aliquoted into PCR tubes and kept on ice until loading into a catheter for cell delivery under the mouse kidney capsule. Mice were anesthetized with 0.5 ml/25 g 1.25% Avertin/body weight, and the left […] kidney site was shaved and disinfected with betadine and alcohol. A 1 cm incision was made to expose the kidney, followed by insertion of the catheter needle and injection of the cell clusters. […] Wound clips were removed 14 days post-surgery and mice were monitored twice a week. […]

## CCC(=O)N1CCN(c2ccc(-n3c(=O)ccc4cnc5ccc(-c6cnc7ccccc7c6)cc5c43)cc2C(F)(F)F)CC1 [Torin1]
mTORC1 [1]
  effect on mTORC1 activity (p-S6) in mature beta cells: inhibited
mTORC1 [2]; glucose-nonresponsive SC-beta cells
  effect on enhanced mTORC1 signaling (phosphorylation of p-S6) in nonresponsive SC-beta cells: repressed
mTORC1 [2]; rich RPMI media
  effect on mTORC1 activity (p-S6) of SC-beta cells cultured in a high nutrient environment: repressed
SC-beta cells; low (2.8 mM) and high (16.7 mM) glucose for 1 h
  GSIS of SC-beta cells grown in indicated conditions: increases their GSIS
SC-beta cells; nonresponsive SC-beta cells treated for 48 hours, low 2.8 mM, high 16.7 mM glucose
  insulin secretion in dynamic GSIS assay: induced insulin secretion in response to glucose

## CC1=NS(=O)(=O)c2cc(Cl)ccc2N1 [diazoxide]
mTORC1 [1]
  effect on mTORC1 activity (p-S6) in mature beta cells: inhibits mTORC1 activation; also recorded: dramatically reduces mTORC1 activity in beta cells
mTORC1 [3]; RPMI with glucose and amino acids, 30 minute incubation
  effect on mTORC1 activation (p-S6) in immature beta cells from mice of indicated age: inhibits mTORC1 activation only at P5; also recorded: does not affect mTORC1 activation

## CC(C)C[C@H](N)C(=O)O [leucine]
mTORC1 [1]
  effect on mTORC1 activity (p-S6) in mature beta cells: amplifies the response to glucose in beta cells; also recorded: sufficient to fully activate the beta cell mTORC1 pathway in the presence of glucose
mTORC1 [4]
  mTORC1 activation (p-S6) in beta cells of adult mice: not sufficient to activate the pathway
mTORC1 [5]
  mTORC1 pathway activation (p-S6) in transplanted SC-beta cells: remains inactive

## Exendin-4
mTORC1 [1]
  effect on mTORC1 activity (p-S6) in mature beta cells: increased
mTORC1 [1]; listed as exendin4
  effect on mTORC1 activity (p-S6) in mature beta cells: strongly activate mTORC1 in beta cells
mTORC1 [1]; in the presence of diazoxide, glucose and amino acids
  effect on mTORC1 activity suppressed by diazoxide in beta cells: rescued

## insulin
mTORC1 [1]
  effect on mTORC1 activity (p-S6) in mature beta cells: not mimicked; also recorded: neither stimulation with insulin nor stimulation with insulin and amino acids was able to activate mTORC1 in beta cells
mTORC1 [3]; mouse islets, 30 minutes incubation in RPMI with indicated nutrients
  effect on mTORC1 activation (p-S6) in mouse beta cells: do not affect mTORC1 activation in beta cells
